Test results as given in US9109004B2, “Progesterone receptor antagonists” (Bayer Intellectual Property GmbH, priority 2010, dated 2015).

What was measured:
[1] = target: T1, human progesterone receptor B (Homo sapiens, UniProt P06401); assay: Progesterone-receptor-antagonistic action in stably transfected SK-N-MC cells, MTV-LUC reporter (PR-B); assay type: cell-based; conditions: antagonistic potency vs 0.1 nmol/l promegestone, 24 hours, luciferase
T1 construct: expressed in transfected cells; host or cells: SK-N-MC human neuroblastoma cells, stably transfected
T1 sequence (P06401 1-933): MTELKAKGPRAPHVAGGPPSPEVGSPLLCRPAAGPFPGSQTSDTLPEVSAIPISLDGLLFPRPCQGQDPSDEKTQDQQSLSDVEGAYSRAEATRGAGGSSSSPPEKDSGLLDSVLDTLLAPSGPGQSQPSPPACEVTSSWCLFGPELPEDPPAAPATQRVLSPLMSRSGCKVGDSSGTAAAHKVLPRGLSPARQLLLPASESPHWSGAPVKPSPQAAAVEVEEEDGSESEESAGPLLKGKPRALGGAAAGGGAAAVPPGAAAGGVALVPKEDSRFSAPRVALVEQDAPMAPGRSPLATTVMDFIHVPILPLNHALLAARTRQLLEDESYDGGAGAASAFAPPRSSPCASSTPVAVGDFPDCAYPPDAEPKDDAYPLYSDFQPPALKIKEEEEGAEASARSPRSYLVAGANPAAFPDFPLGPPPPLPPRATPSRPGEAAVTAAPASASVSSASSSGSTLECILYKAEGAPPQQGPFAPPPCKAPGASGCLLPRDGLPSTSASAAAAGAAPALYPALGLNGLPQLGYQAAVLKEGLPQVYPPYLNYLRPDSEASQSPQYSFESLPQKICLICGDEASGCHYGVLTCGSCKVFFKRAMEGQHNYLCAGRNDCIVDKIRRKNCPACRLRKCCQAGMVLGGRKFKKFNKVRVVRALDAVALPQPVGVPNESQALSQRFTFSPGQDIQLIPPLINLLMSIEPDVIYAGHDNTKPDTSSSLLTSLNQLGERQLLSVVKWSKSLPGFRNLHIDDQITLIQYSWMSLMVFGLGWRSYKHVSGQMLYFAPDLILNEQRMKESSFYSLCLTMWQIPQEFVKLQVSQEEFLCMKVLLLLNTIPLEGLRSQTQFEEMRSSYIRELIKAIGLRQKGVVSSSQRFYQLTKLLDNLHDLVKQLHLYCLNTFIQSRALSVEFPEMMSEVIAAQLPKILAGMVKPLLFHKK
Procedure: Progesterone-Receptor-Antagonistic Action in Stable Transfectants of Human Neuroblastoma Cells (SK-N-MC Cells) with the Human Progesterone A or Progesterone B Receptor and an MTV-LUC Reporter Construct
SK-N-MC cells (human neuroblastoma cells) that have been stably transfected with plasmids that express the human progesterone receptor B (pRChPR-B-neo) or the human progesterone receptor A (pRChPR-A-neo) and a reporter construct (pMMTV-LUC), were incubated for 24 hours either in the absence (negative control) or in the presence of increasing amounts of the particular test compound (0.01 nmol/l, 0.1 nmol/l, 1 nmol/l, 10 nmol/l, 100 nmol/l and 1 μmol/l), to determine the agonistic efficacy. As positive control of reporter gene induction, the cells were treated with the synthetic gestagen promegestone (0.01 nmol/l, 0.1 nmol/l, 1 nmol/l, 10 nmol/l, 100 nmol/l and 1 μmol/l). For determination of the antagonistic activity, the cells were treated with 0.1 nmol/l promegestone and additionally with increasing amounts of the particular test compound (0.01 nmol/l, 0.1 nmol/l, 1 nmol/l, 10 nmol/l, 100 nmol/l and 1 μmol/l). The activity of the reporter gene LUC (LUC=luciferase) was determined in the cell lysates and was measured as RLU (relative light units). All measured values are given as % efficacy and as EC50 or IC50 concentrations.

[2] = system: pregnant rats; assay: Test as abortifacient in female rats (termination of early pregnancy); assay type: in vivo, rat; conditions: d5-d7 p.c., autopsy d9 p.c.
Procedure: Test as Abortifacient in Female Rats
The antagonistic action of the compounds according to the invention was tested on pregnant rats (6 rats per group) on day 5 to 7 post coitum in conventional conditions of husbandry and feeding.
After successful mating, the pregnant animals (presence of sperm in the vaginal smear on day 1 of pregnancy=d1 p.c.) were randomized and were divided into the treatment group and the control group. The animals then received, subcutaneously or orally, in each case 0.15; 0.5; 1.5 or 5 mg/kg of the test compound or 1.0 ml/kg of vehicle (benzyl benzoate/castor oil: 1+4 [v/v]) daily from day 5 to day 7 (d5-d7 p.c.).
Autopsy was carried out on day 9 (d9 p.c.). For characterization of progesterone-receptor-antagonistic action, the uterus was investigated for the presence of nidation sites. Complete absence, but also the presence of pathological, haemorrhagic or otherwise abnormal nidation sites on day 9 (d9 p.c.) was assessed as abortion.

[3] = Metabolic stability in human liver microsomes (HLM); assay type: in vitro ADME; conditions: from HLM half-life, well-stirred model, phase I reactions; 1 μM test compound
Procedure: Metabolic stability of 4-[(11β,17β)-17-hydroxy-3-oxo-17-(pentafluoro-ethyl)estra-4,9-dien-11-yl]benzamide and 4′-[(11β,17β)-17-hydroxy-3-oxo-17-(pentafluoro-ethyl)estra-4,9-dien-11-yl]biphenyl-4-carboxamide in human liver microsomes (HLM) Isolated human liver microsomes (HLM) were used for assessing the metabolic stability of compounds of general formula I. The incubations were carried out with 2.4 ml HLM solution (0.5 mg/ml protein content), 30 μl of the test compound (final concentration 1 μM) and 0.6 ml of the cofactor mixture (=NADPH-generating system of 3 IU glucose-6-phosphate dehydrogenase, 14.6 mg glucose-6-phosphate, 1.2 mg NADP) at 37° C. in 100 mM phosphate buffer at pH 7.4. Samples are taken at 6 time points (2-60 min), precipitated with an equal volume of methanol, and the recovery of the test substances used in the supernatant is determined by LC-MS/MS analysis. The intrinsic clearance of the substance in the liver microsome assay can be calculated from the value found for the half-life of substance breakdown. Using this, on the basis of various physiological characteristics according to the well-stirred model it is possible to predict a (metabolic) in-vivo clearance with respect to phase I reactions.

IC50 [1]: 0.9 nM
(metabolic) in-vivo clearance in humans predicted [3]: 0.33 L/h/kg
Structure (SMILES): C[C@]12C[C@H](c3ccc(C(N)=O)cc3)C3=C4CCC(=O)C=C4CC[C@H]3[C@@H]1CC[C@@]2(O)C(F)(F)C(F)(F)F [Example 1, 4-[(11β,17β)-17-Hydroxy-3-oxo-17-(pentafluoroethyl)estra-4,9-dien-11-yl]benzamide]
Abortion rate ([2]; daily dose 0.5 mg/kg p.o.): 0%
Abortion rate ([2]; daily dose 1.5 mg/kg p.o.): 50%
Abortion rate ([2]; daily dose 5.0 mg/kg p.o.): 100%
